Measured values reported in the NIST ThermoML archive (doi:10.1016/j.jct.2015.06.036).

Experiment: xn = mol fraction of the nth substance listed
Settings: 101 kPa, Liquid; for viscosity: Falling or rolling sphere viscometry; for speed of sound: Sing-around technique in a fixed-path interferometer; for mass density: Vibrating tube method

CCn1cc[n+](C)c1.F[B-](F)(F)F [1-ethyl-3-methylimidazolium tetrafluoroborate] + CO
Settings | mass density [kg/m3] | speed of sound [m/s] | viscosity [mPa·s]
278.15 K, x1 = 0.0499 | 896.8 | 1233 | 0.998
278.15 K, x1 = 0.0998 | 965.1 | 1283 | 1.43
278.15 K, x1 = 0.1498 | 1019.5 | 1336 | 1.92
278.15 K, x1 = 0.1998 | 1062.4 | 1384 | 2.52
278.15 K, x1 = 0.3002 | 1127.9 | 1465 | 4.08
278.15 K, x1 = 0.4004 | 1174.8 | 1523 | 6.45
278.15 K, x1 = 0.5001 | 1209.6 | 1565 | 9.84
278.15 K, x1 = 0.6004 | 1237.2 | 1597 | 15.3
278.15 K, x1 = 0.6987 | 1258.7 | 1623 | 24.6
278.15 K, x1 = 0.8005 | 1277.4 | 1644 | 38.9
278.15 K, x1 = 0.8486 | 1284.8 | 1653 | 47.9
278.15 K, x1 = 0.8987 | 1292.3 | 1661 | 61.5
278.15 K, x1 = 0.9476 | 1298.6 | 1669 | 76.5
278.15 K, x1 = 1 | 1305.3 | 1677 | 101
288.15 K, x1 = 0.0499 | 887.8 | 1204 | 0.848
288.15 K, x1 = 0.0998 | 956.3 | 1259 | 1.19
288.15 K, x1 = 0.1498 | 1010.9 | 1313 | 1.57
288.15 K, x1 = 0.1998 | 1053.8 | 1361 | 2.03
288.15 K, x1 = 0.3002 | 1119.4 | 1441 | 3.24
288.15 K, x1 = 0.4004 | 1166.5 | 1499 | 5.01
288.15 K, x1 = 0.5001 | 1201.4 | 1540 | 7.49
288.15 K, x1 = 0.6004 | 1229.1 | 1572 | 11.3
288.15 K, x1 = 0.6987 | 1250.7 | 1598 | 17.7
288.15 K, x1 = 0.8005 | 1269.5 | 1619 | 26.8
288.15 K, x1 = 0.8486 | 1276.9 | 1628 | 32.3
288.15 K, x1 = 0.8987 | 1284.5 | 1636 | 40.2
288.15 K, x1 = 0.9476 | 1290.9 | 1644 | 48.7
288.15 K, x1 = 1 | 1297.6 | 1653 | 62
298.15 K, x1 = 0.0499 | 878.7 | 1176 | 0.732
298.15 K, x1 = 0.0998 | 947.5 | 1233 | 1.01
298.15 K, x1 = 0.1498 | 1002.2 | 1289 | 1.32
298.15 K, x1 = 0.1998 | 1045.3 | 1337 | 1.69
298.15 K, x1 = 0.3002 | 1111 | 1418 | 2.66
298.15 K, x1 = 0.4004 | 1158.2 | 1475 | 4.03
298.15 K, x1 = 0.5001 | 1193.3 | 1516 | 5.91
298.15 K, x1 = 0.6004 | 1221.1 | 1548 | 8.69
298.15 K, x1 = 0.6987 | 1242.8 | 1575 | 13.3
298.15 K, x1 = 0.8005 | 1261.7 | 1596 | 19.5
298.15 K, x1 = 0.8486 | 1269.2 | 1605 | 22.9
298.15 K, x1 = 0.8987 | 1276.8 | 1613 | 28
298.15 K, x1 = 0.9476 | 1283.2 | 1621 | 33.2
298.15 K, x1 = 1 | 1290 | 1629 | 41
308.15 K, x1 = 0.0499 | 869.6 | 1147 | 0.642
308.15 K, x1 = 0.0998 | 938.7 | 1208 | 0.872
308.15 K, x1 = 0.1498 | 993.6 | 1265 | 1.13
308.15 K, x1 = 0.1998 | 1036.8 | 1314 | 1.44
308.15 K, x1 = 0.3002 | 1102.7 | 1394 | 2.23
308.15 K, x1 = 0.4004 | 1150 | 1451 | 3.33
308.15 K, x1 = 0.5001 | 1185.3 | 1493 | 4.79
308.15 K, x1 = 0.6004 | 1213.2 | 1525 | 6.91
308.15 K, x1 = 0.6987 | 1235 | 1551 | 10.4
308.15 K, x1 = 0.8005 | 1254 | 1573 | 14.9
308.15 K, x1 = 0.8486 | 1261.5 | 1581 | 17.1
308.15 K, x1 = 0.8987 | 1269.1 | 1589 | 20.5
308.15 K, x1 = 0.9476 | 1275.6 | 1598 | 23.8
308.15 K, x1 = 1 | 1282.4 | 1606 | 28.8
318.15 K, x1 = 0.0499 | 860.5 | 1119 | 0.57
318.15 K, x1 = 0.0998 | 929.8 | 1182 | 0.772
318.15 K, x1 = 0.1498 | 984.9 | 1241 | 0.979
318.15 K, x1 = 0.1998 | 1028.3 | 1290 | 1.24
318.15 K, x1 = 0.3002 | 1094.4 | 1371 | 1.9
318.15 K, x1 = 0.4004 | 1141.9 | 1428 | 2.81
318.15 K, x1 = 0.5001 | 1177.3 | 1470 | 3.98
318.15 K, x1 = 0.6004 | 1205.4 | 1502 | 5.65
318.15 K, x1 = 0.6987 | 1227.2 | 1528 | 8.37
318.15 K, x1 = 0.8005 | 1246.3 | 1550 | 11.7
318.15 K, x1 = 0.8486 | 1253.9 | 1559 | 13.2
318.15 K, x1 = 0.8987 | 1261.6 | 1567 | 15.7
318.15 K, x1 = 0.9476 | 1268 | 1575 | 17.8
318.15 K, x1 = 1 | 1274.9 | 1583 | 21.2
